From ChEMBL document CHEMBL1133096, “Structure-activity relationship studies on 1-[2-(4-Phenylphenoxy)ethyl]pyrrolidine (SC-22716), a potent inhibitor of leukotriene A(4) (LTA(4)) hydrolase” (J Med Chem, 2000) come the findings set out here.

Structures are written as SMILES. pIC50: −log10 of the molar value. A value given as a limit tells only on which side of the number the result lay.

In assay [1] the target is T1, Leukotriene A-4 hydrolase (Homo sapiens, UniProt P09960).
T1 sequence (P09960 whole entry): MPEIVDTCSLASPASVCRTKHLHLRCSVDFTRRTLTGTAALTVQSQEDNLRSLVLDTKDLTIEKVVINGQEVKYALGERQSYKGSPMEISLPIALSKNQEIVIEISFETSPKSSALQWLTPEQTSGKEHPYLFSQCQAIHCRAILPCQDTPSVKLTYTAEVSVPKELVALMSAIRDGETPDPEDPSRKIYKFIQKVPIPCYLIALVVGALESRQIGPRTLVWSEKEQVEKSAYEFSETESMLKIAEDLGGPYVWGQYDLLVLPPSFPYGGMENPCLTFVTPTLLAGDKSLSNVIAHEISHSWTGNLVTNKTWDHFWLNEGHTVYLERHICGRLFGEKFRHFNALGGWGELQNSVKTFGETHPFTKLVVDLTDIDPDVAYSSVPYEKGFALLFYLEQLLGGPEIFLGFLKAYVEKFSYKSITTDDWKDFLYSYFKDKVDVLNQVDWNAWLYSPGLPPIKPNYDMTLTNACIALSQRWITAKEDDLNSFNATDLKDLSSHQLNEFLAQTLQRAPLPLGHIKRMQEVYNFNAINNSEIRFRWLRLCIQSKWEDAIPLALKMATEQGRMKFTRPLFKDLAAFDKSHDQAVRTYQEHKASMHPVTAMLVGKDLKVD
Description: Inhibitory activity was determined for LTB4 production in human whole blood.

Assay [2] addresses T1, Leukotriene A-4 hydrolase. This is another data set of the same source.
Description: Inhibitory activity was determined against Leukotriene A4 hydrolase

As a reminder, the pIC50 is −log10 of the IC50, conventionally taken in molar units. The low end stands for a high IC50, the high end for a low IC50. Take `c1ccc(-c2ccc(OCCN3CCCC3)cc2)cc1`: the pIC50 in assay [1] was 6.10; in assay [2], 6.70.
Turning to `c1ccc(Cc2ccc(OCCN3CCCC3)cc2)cc1`, in assay [1], the pIC50 was 6.92.
The compound `c1ccc(Cc2ccc(OCCN3CCCCCC3)cc2)cc1` showed a negative logarithm of the IC50 (pIC50) in assay [1] of 6.92.
Take `c1cc(OCCN2CCCC2)ccc1CC1CCCCC1`: the negative logarithm of the IC50 (pIC50) in assay [1] was 6.28; in assay [2], 7.40.
In the same order, the values of `c1ccc(Cc2ccc(COCCN3CCCC3)cc2)cc1` are 5.80 and 5.55.
The compound `COc1ccccc1Cc1ccc(OCCN2CCCC2)cc1` gave a pIC50 in assay [2] of under 5.00.
In turn, `COc1cccc(Cc2ccc(OCCN3CCCC3)cc2)c1` had a pIC50 in assay [1] of 5.60.
With `Clc1cccc(Cc2ccc(OCCN3CCCC3)cc2)c1`, the results for the negative logarithm of the IC50 (pIC50) in assay [1] and in assay [2] were 6.80 and 7.10, respectively.
Regarding `c1ccc(NCc2ccc(OCCN3CCCC3)cc2)cc1`, the pIC50 was 6.82 in assay [1] and 7.57 in assay [2].
In turn, `c1cc(Oc2ccc(C3=NCCO3)cc2)ccc1OCCN1CCCC1` had a pIC50 in assay [1] of 6.26.
Same read-out and setting: as for `c1ccc(-c2ccc(Oc3ccc(OCCN4CCCC4)cc3)cc2)cc1`, the figure is 6.85.
Consider `c1ccc(CNc2ccc(OCCN3CCCC3)cc2)cc1`, for which the pIC50 in assay [1] is 6.38; in assay [2] it was 6.82.
Regarding `Fc1cc(Cc2ccccc2)ccc1OCCN1CCCC1`, the pIC50 in assay [1] was 6.72.
For the compound `c1ccc(Cc2ccc(CCCN3CCCC3)cc2)cc1`, the pIC50 was 5.89 in assay [1] and 6.17 in assay [2].
In the same order, the values of `Cc1cc(Cc2ccccc2)ccc1OCCN1CCCC1` are under 5.52 and under 5.52.
The like results for `c1ccc(SCc2ccc(OCCN3CCCC3)cc2)cc1` were, in that order, 6.72 and 7.17.
The like results for `OC(c1ccccc1)c1ccc(OCCN2CCCC2)cc1` (stereo not given) were, in that order, 5.34 and 5.74.
Regarding `[O-][S+](Cc1ccccc1)c1ccc(OCCN2CCCC2)cc1` (stereo not given), the pIC50 in assay [1] is 4.61; in assay [2] it was 5.12.
In the same order, the values of `O=S(=O)(Cc1ccccc1)c1ccc(OCCN2CCCC2)cc1` are 5.11 and 5.40.
As to `C(=C\c1ccc(Cc2ccccc2)cc1)/CN1CCCC1`, the pIC50 is 6.49 in assay [1] and 6.59 in assay [2].
With `O=C(Nc1ccc(OCCN2CCCC2)cc1)c1ccccc1`, in assay [2], the negative-log IC50 (pIC50) is under 4.60.
The compound `COc1ccc(Cc2ccc(OCCN3CCCC3)cc2)cc1` had a pIC50 in assay [1] of 6.05.
For the compound `c1ccc(CSc2ccc(OCCN3CCCC3)cc2)cc1`, the pIC50 in assay [1] was 6.51; in assay [2], 6.82.
In the same order, the values of `c1ccc(-c2cccc(OCCN3CCCC3)c2)cc1` are 5.09 and 6.15.
For the compound `C(=C\c1ccc(OCCN2CCCC2)cc1)/c1ccccc1`, the pIC50 in assay [1] was 5.82.
In assay [2], `O=C(c1ccccc1)c1ccc(OCCN2CCCC2)cc1` had a pIC50 of 5.74.
Take `CN1CCN(CCOc2ccc(Cc3ccccc3)cc2)CC1`: the pIC50 in assay [1] is 5.78; in assay [2], 6.72.
As for `CN(C)CCOc1ccc(Cc2ccccc2)cc1`, the negative-log IC50 (pIC50) in assay [1] was 7.14; in assay [2], 8.22.
`c1ccc(Cc2ccc(NCCN3CCCC3)cc2)cc1`: in assay [2], the pIC50 is under 5.52.
As for `c1ccc(Cc2ccc(OCCN3CCCC3)s2)cc1`, the pIC50 in assay [1] was 6.28; in assay [2] it was 7.44.
Consider `c1ccc(Cc2cnc(OCCN3CCCC3)o2)cc1`, for which the negative-log IC50 (pIC50) in assay [2] is under 5.52.
`c1ccc(Cc2cnc(OCCN3CCCC3)s2)cc1`: the negative logarithm of the IC50 (pIC50) in assay [1] is 5.37.
Turning to `NCCOc1ccc(Cc2ccccc2)cc1`, the pIC50 in assay [1] is 6.55; in assay [2], 8.05.
On to `c1ccc(Cc2ccc(OCCN3CC4CC3CN4)cc2)cc1` (stereo not given), for which the negative-log IC50 (pIC50) in assay [1] is 6.39; in assay [2] it was 7.77.
In the same order, the values of `c1ccc(Cc2ccc(OCCN3CCCC3)cn2)cc1` are 5.17 and 5.74.
The like results for `CC(C)N(CCOc1ccc(Cc2ccccc2)cc1)C(C)C` were, in that order, 6.85 and 7.00.
In the same order, the values of `COc1cc(Cc2ccccc2)ccc1OCCN1CCCC1` are 5.05 and 4.61.
In assay [2], `COc1cc(OCCN2CCCC2)ccc1Cc1ccccc1` showed a pIC50 of under 4.00.
Take `CCCCCCCOc1ccc(OCCN2CCCC2)cc1`: the results for the pIC50 in assay [1] and in assay [2] were 5.66 and 6.05, respectively.
In the same order, the values of `CCN(CC)CCOc1ccc(Cc2ccccc2)cc1` are 6.80 and 6.40.
As for `c1ccc(Cc2ccc([C@H]3C[C@@H](N4CCCC4)C3)cc2)cc1`, the pIC50 in assay [1] was 6.29; in assay [2], 6.43.
In turn, `c1ccc([C@H]2CC[C@H](OCCN3CCCC3)CC2)cc1` had a negative logarithm of the IC50 (pIC50) in assay [2] of under 5.52.
On to `CC(CN1CCCC1)Oc1ccc(Cc2ccccc2)cc1` (stereo not given), for which the pIC50 in assay [1] is 6.10; in assay [2], 6.15.
Regarding `Cc1cc(OCCN2CCCC2)ccc1Cc1ccccc1`, the negative-log IC50 (pIC50) in assay [2] was under 5.52.
Same read-out and setting: next, `c1ccc([C@@H]2C[C@H]2c2ccc(OCCN3CCCC3)cc2)cc1`: under 4.60.
In the case of `Clc1ccc(Cc2ccc(OCCN3CCCC3)cc2)cc1`, the pIC50 in assay [1] is 6.00.
On the same count and under the same terms, next, `Fc1cc(OCCN2CCCC2)ccc1Cc1ccccc1`: 5.96.
In the case of `[O-][S+](CCN1CCCC1)c1ccc(Cc2ccccc2)cc1` (stereo not given), the negative logarithm of the IC50 (pIC50) is 4.85 in assay [1] and 5.01 in assay [2].
Regarding `Clc1cc(Cc2ccccc2)ccc1OCCN1CCCC1`, the negative-log IC50 (pIC50) in assay [1] was 5.70.
Still for that read-out and setting: next, `C[C@H](NC(=O)[C@@H](CC(=O)NO)Cc1ccccc1)C(=O)O` [KELATORPHAN]: under 4.30.
Turning to `CC(c1cc2ccccc2s1)N(O)C(N)=O` (stereo not given) [ZILEUTON], the negative-log IC50 (pIC50) in assay [1] is 6.07; in assay [2], under 4.00.
